Results from patent publication US20200038513A1, “MODULATORS OF FAK PROTEOLYSIS AND ASSOCIATED METHODS OF USE” (ARVINAS OPERATIONS, INC., priority 2018, published 2020).
Read-outs that look alike come from different tables or passages of the source.

Experiments:
[1] = Pharmacokinetics of intraperitoneal or intravenous injection in CD1 mice; assay type: in vivo; settings: for Conc. (ng/mL) Mouse 1 / Conc. (ng/mL) Mouse 2 / Conc. (ng/mL) Mouse 3 / concentration at 0.25 h / concentration at 0.5 h / concentration at 1 h / concentration at 2 h / concentration at 4 h / concentration at 8 h / concentration at 0.033 h / concentration at 0.083 h: CD1 mice plasma; for concentration at 0.25 h / concentration at 0.5 h / concentration at 1 h / concentration at 2 h / concentration at 4 h / concentration at 8 h / AUC(0-t) / half-life / concentration at 0.033 h / concentration at 0.083 h: male, CD1, mouse, plasma
Summary of the method: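 Male CD1 mice, 6-8 weeks old, 3 per group, dosed IV (5 s injection; 10% HP-b-CD, 40 mM sodium acetate, 40 mM NaCl, pH 4.5) or IP (5% EtOH, 5% Solutol HS15 in D5W). Serial dorsal metatarsal vein blood, terminal heart puncture; plasma analysed by LC/MS/MS after acetonitrile precipitation, calibration 1-2000 ng/mL.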

PPB = assay type: in vitro ADME; settings: plasma
[2] = ip, 10 mg/kg, IP 10 mg/kg, read-out: Conc. (ng/mL) Mouse 1
[3] = ip, 10 mg/kg, IP 10 mg/kg, read-out: Conc. (ng/mL) Mouse 2
[4] = ip, 10 mg/kg, IP 10 mg/kg, read-out: Conc. (ng/mL) Mouse 3
[5] = ip, 10 mg/kg, IP 10 mg/kg, read-out: Mean
[6] = iv, 1 mg/kg, IV 1.0 mg/kg, read-out: Conc. (ng/mL) Mouse 1
[7] = iv, 1 mg/kg, IV 1.0 mg/kg, read-out: Conc. (ng/mL) Mouse 2
[8] = iv, 1 mg/kg, IV 1.0 mg/kg, read-out: Conc. (ng/mL) Mouse 3
[9] = iv, 1 mg/kg, IV 1.0 mg/kg, read-out: Mean

For Cc1ncsc1-c1ccc(CNC(=O)[C@@H]2C[C@@H](O)CN2C(=O)[C@@H](NC(=O)CCOCCOc2ccc(Nc3ncc(C(F)(F)F)c(NCc4cccc(N(C)S(C)(=O)=O)c4)n3)cc2)C(C)(C)C)cc1 [Compound 102, (2S,4R)-1-((S)-3,3-dimethyl-2-(3-(2-(4-((4-((3-(N-methylmethylsulfonamido)benzyl)amino)-5-(trifluoromethyl)pyrimidin-2-yl)amino)phenoxy)ethoxy)propanamido)butanoyl)-4-hydroxy-N-(4-(4-methylthiazol-5-yl)benzyl)pyrrolidine-2-carboxamide], which “Conc. (ng/mL) Mouse 1” value ([1]; IP 10 mg/kg, 24 h) is on record?
Its value is “BLOQ”.

What about the “Conc. (ng/mL) Mouse 2” value ([1]; IP 10 mg/kg, 24 h) of the same compound?
Its value is “BLOQ”.

What about the “Conc. (ng/mL) Mouse 3” value ([1]; IP 10 mg/kg, 24 h) of the same compound?
The value was “BLOQ”.

What about the “Conc. (ng/mL) Mouse 1” value ([1]; IV 1.0 mg/kg, 4 h) of the same compound?
The value was “BLOQ”.

What about the “Conc. (ng/mL) Mouse 2” value ([1]; IV 1.0 mg/kg, 4 h) of the same compound?
Its value is “BLOQ”.

And the “Conc. (ng/mL) Mouse 1” value ([1]; IV 1.0 mg/kg, 8 h)?
Its value is “BLOQ”.

What about the “Conc. (ng/mL) Mouse 2” value ([1]; IV 1.0 mg/kg, 8 h) of the same compound?
The value was “BLOQ”.

And the “Conc. (ng/mL) Mouse 3” value ([1]; IV 1.0 mg/kg, 8 h)?
Its value is “BLOQ”.

What about the “Conc. (ng/mL) Mouse 1” value ([1]; IV 1.0 mg/kg, 24 h) of the same compound?
The value was “BLOQ”.

And the “Conc. (ng/mL) Mouse 2” value ([1]; IV 1.0 mg/kg, 24 h)?
The value was “BLOQ”.

What about the “Conc. (ng/mL) Mouse 3” value ([1]; IV 1.0 mg/kg, 24 h) of the same compound?
The value was “BLOQ”.

What about the concentration at 0.25 h [1, 2] of the same compound?
The concentration at 0.25 h was 521 ng/mL.

And the concentration at 0.25 h [1, 3]?
Its concentration at 0.25 h is 432 ng/mL.

And the concentration at 0.25 h [1, 4]?
Its concentration at 0.25 h is 338 ng/mL.

And the concentration at 0.25 h [1, 5]?
Its concentration at 0.25 h is 431 ng/mL.

And the concentration at 0.5 h [1, 2]?
Its concentration at 0.5 h is 674 ng/mL.

And the concentration at 0.5 h [1, 3]?
The concentration at 0.5 h was 546 ng/mL.

What about the concentration at 0.5 h [1, 4] of the same compound?
Its concentration at 0.5 h is 551 ng/mL.

And the concentration at 0.5 h [1, 5]?
The concentration at 0.5 h was 591 ng/mL.

And the concentration at 1 h [1, 2]?
Its concentration at 1 h is 2540 ng/mL.

And the concentration at 1 h [1, 3]?
The concentration at 1 h was 2130 ng/mL.

And the concentration at 1 h [1, 4]?
Its concentration at 1 h is 2120 ng/mL.

And the concentration at 1 h [1, 5]?
The concentration at 1 h was 2260 ng/mL.

What about the concentration at 2 h [1, 2] of the same compound?
The concentration at 2 h was 1690 ng/mL.

What about the concentration at 2 h [1, 3] of the same compound?
Its concentration at 2 h is 1070 ng/mL.

What about the concentration at 2 h [1, 4] of the same compound?
The concentration at 2 h was 1700 ng/mL.

What about the concentration at 2 h [1, 5] of the same compound?
Its concentration at 2 h is 1490 ng/mL.

What about the concentration at 4 h ([1]; ip, 10 mg/kg, IP 10 mg/kg, 4 h, read-out: Conc. (ng/mL) Mouse 1) of the same compound?
The concentration at 4 h was 560 ng/mL.

And the concentration at 4 h ([1]; ip, 10 mg/kg, IP 10 mg/kg, 4 h, read-out: Conc. (ng/mL) Mouse 2)?
The concentration at 4 h was 529 ng/mL.

And the concentration at 4 h ([1]; ip, 10 mg/kg, IP 10 mg/kg, 4 h, read-out: Conc. (ng/mL) Mouse 3)?
Its concentration at 4 h is 559 ng/mL.

And the concentration at 4 h ([1]; ip, 10 mg/kg, IP 10 mg/kg, 4 h, read-out: Mean)?
The concentration at 4 h was 549 ng/mL.

And the concentration at 8 h ([1]; ip, 10 mg/kg, IP 10 mg/kg, 8 h, read-out: Conc. (ng/mL) Mouse 1)?
Its concentration at 8 h is 36.4 ng/mL.

And the concentration at 8 h ([1]; ip, 10 mg/kg, IP 10 mg/kg, 8 h, read-out: Conc. (ng/mL) Mouse 2)?
Its concentration at 8 h is 92.3 ng/mL.

What about the concentration at 8 h ([1]; ip, 10 mg/kg, IP 10 mg/kg, 8 h, read-out: Conc. (ng/mL) Mouse 3) of the same compound?
The concentration at 8 h was 124 ng/mL.

And the concentration at 8 h ([1]; ip, 10 mg/kg, IP 10 mg/kg, 8 h, read-out: Mean)?
Its concentration at 8 h is 84 ng/mL.

And the AUC(0-t) ([1]; ip, 10 mg/kg, read-out: AUClast (h * ng/mL) IP)?
Its AUC(0-t) is 6260 ng·h/mL.

And the half-life ([1]; ip, 10 mg/kg, read-out: T ½ (h) IP (converted))?
The half-life was 1.46 h.

What about the concentration at 0.033 h [1, 6] of the same compound?
The concentration at 0.033 h was 1920 ng/mL.

And the concentration at 0.033 h [1, 7]?
Its concentration at 0.033 h is 1820 ng/mL.

What about the concentration at 0.033 h [1, 8] of the same compound?
Its concentration at 0.033 h is 1850 ng/mL.

And the concentration at 0.033 h [1, 9]?
The concentration at 0.033 h was 1860 ng/mL.

And the concentration at 0.083 h [1, 6]?
Its concentration at 0.083 h is 249 ng/mL.

What about the concentration at 0.083 h [1, 7] of the same compound?
Its concentration at 0.083 h is 368 ng/mL.

What about the concentration at 0.083 h [1, 8] of the same compound?
Its concentration at 0.083 h is 333 ng/mL.

What about the concentration at 0.083 h [1, 9] of the same compound?
Its concentration at 0.083 h is 317 ng/mL.

And the concentration at 0.25 h [1, 6]?
The concentration at 0.25 h was 55.9 ng/mL.

And the concentration at 0.25 h [1, 7]?
The concentration at 0.25 h was 67.4 ng/mL.

And the concentration at 0.25 h [1, 8]?
Its concentration at 0.25 h is 71.8 ng/mL.

And the concentration at 0.25 h [1, 9]?
Its concentration at 0.25 h is 65.1 ng/mL.

What about the concentration at 0.5 h [1, 6] of the same compound?
Its concentration at 0.5 h is 23.7 ng/mL.

And the concentration at 0.5 h [1, 7]?
The concentration at 0.5 h was 33.2 ng/mL.

And the concentration at 0.5 h [1, 8]?
Its concentration at 0.5 h is 37.6 ng/mL.

And the concentration at 0.5 h [1, 9]?
Its concentration at 0.5 h is 31.5 ng/mL.

And the concentration at 1 h [1, 6]?
The concentration at 1 h was 11.8 ng/mL.

What about the concentration at 1 h [1, 7] of the same compound?
The concentration at 1 h was 16.7 ng/mL.

What about the concentration at 1 h [1, 8] of the same compound?
Its concentration at 1 h is 18.4 ng/mL.

And the concentration at 1 h [1, 9]?
Its concentration at 1 h is 15.6 ng/mL.

And the concentration at 2 h [1, 6]?
The concentration at 2 h was 6.9 ng/mL.

What about the concentration at 2 h [1, 7] of the same compound?
The concentration at 2 h was 9.2 ng/mL.

What about the concentration at 2 h [1, 8] of the same compound?
The concentration at 2 h was 6.75 ng/mL.

And the concentration at 2 h [1, 9]?
Its concentration at 2 h is 7.62 ng/mL.

What about the concentration at 4 h ([1]; iv, 1 mg/kg, IV 1.0 mg/kg, 4 h, read-out: Conc. (ng/mL) Mouse 3) of the same compound?
Its concentration at 4 h is 2.09 ng/mL.

What about the AUC(0-t) ([1]; iv, 1 mg/kg, read-out: AUClast (h * ng/mL) IV) of the same compound?
The AUC(0-t) was 264 ng·h/mL.

And the half-life ([1]; iv, 1 mg/kg, read-out: T ½ (h) IV (converted))?
Its half-life is 0.905 h.

And the fraction unbound (PPB)?
The fraction unbound was 0.0066.
